{
  "source": "paper PMC4448979",
  "about": "(Pharmacology Research & Perspectives, 2015)",
  "type_in_all_cases": "cell-based",
  "key": {"[1]": {"target": "T1, human P2X7 receptor (HEK-hP2X7) (Homo sapiens, UniProt Q99572)", "T1 sequence (Q99572 1-595)": "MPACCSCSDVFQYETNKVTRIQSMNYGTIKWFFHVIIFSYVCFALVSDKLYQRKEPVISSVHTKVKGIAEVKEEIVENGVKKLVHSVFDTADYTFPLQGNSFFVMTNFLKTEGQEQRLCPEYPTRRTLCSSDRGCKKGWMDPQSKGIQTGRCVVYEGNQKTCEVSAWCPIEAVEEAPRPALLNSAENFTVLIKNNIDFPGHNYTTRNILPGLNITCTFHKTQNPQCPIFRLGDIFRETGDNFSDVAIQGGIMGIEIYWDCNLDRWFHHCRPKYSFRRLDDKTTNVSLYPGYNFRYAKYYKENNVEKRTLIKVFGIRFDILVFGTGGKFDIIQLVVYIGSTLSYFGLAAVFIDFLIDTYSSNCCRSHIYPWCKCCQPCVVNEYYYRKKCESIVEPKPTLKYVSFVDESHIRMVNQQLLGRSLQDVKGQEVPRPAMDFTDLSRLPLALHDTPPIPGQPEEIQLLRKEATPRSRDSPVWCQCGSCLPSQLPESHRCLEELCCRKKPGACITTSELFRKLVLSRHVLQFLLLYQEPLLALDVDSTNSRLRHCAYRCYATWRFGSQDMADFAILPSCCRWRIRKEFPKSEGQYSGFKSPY", "test": "cytosensor, cell impedance"}, "human P2X4 (1321N1)": {"target": "T2, human P2X4 (1321N1) (Homo sapiens, UniProt Q99571)", "T2 sequence (Q99571 1-388)": "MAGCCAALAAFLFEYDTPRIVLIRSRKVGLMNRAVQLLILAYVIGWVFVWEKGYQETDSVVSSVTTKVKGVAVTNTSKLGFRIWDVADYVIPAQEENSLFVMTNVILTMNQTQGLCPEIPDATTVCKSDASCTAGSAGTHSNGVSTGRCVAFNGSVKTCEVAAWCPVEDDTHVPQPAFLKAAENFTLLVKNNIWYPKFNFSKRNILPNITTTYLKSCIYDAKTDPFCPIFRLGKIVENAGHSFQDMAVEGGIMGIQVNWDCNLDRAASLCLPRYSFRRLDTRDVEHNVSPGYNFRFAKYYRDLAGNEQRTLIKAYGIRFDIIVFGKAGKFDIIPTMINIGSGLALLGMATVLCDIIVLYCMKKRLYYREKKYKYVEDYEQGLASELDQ", "test": "Fluo-4 calcium flux, fluorescence plate reader", "settings": "1321-N1, read-out: decrease in remaining activity at 10 μmol/L"}, "[2]": {"target": "T3, P2X7 receptor of mouse microglia BV2 cells (Mus musculus, UniProt Q9Z1M0)", "T3 sequence (Q9Z1M0 1-595)": "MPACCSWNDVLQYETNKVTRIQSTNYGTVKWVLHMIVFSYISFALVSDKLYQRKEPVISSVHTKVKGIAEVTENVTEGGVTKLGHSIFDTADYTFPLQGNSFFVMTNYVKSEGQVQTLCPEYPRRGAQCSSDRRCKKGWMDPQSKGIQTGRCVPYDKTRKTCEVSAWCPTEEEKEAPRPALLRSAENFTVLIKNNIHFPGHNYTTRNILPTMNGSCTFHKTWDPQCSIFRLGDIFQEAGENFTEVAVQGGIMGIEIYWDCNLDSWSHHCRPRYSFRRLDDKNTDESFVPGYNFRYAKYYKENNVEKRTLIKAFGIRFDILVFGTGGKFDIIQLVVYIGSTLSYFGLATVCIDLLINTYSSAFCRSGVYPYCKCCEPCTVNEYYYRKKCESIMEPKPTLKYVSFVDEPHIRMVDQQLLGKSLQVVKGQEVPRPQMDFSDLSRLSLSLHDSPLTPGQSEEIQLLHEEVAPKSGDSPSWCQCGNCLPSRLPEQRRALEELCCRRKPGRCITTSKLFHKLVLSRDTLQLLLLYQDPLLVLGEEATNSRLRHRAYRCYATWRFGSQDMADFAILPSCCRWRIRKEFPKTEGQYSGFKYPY", "test": "whole-cell patch clamp", "settings": "antagonist; 100 μmol/L BzATP; -70 mV, room temperature, pH 7.4"}, "[3]": {"target": "T1, human P2X7 receptor (HEK-hP2X7)", "test": "YoPro1 dye uptake, fluorescence plate reader"}, "[4]": {"target": "T1, human P2X7 receptor (HEK-hP2X7)", "test": "YoPro1 dye uptake, fluorescence plate reader", "settings": "agonist; HEK-hP2X7 cells"}},
  "data": [
    {"smiles": "Nc1ncnc2c1ncn2[C@@H]1O[C@H](COP(=O)(O)OP(=O)(O)OP(=O)(O)O)[C@@H](OC(=O)c2ccc(C(=O)c3ccccc3)cc2)[C@H]1O", "note": "[BzATP, 2′, 3′–O–(4-benzoylbenzoyl)–ATP]", "values": [
      {"measurement": "EC50", "setting": "[1]", "value": "9600 ± 1800", "unit": "nM"}
    ]},
    {"smiles": "O=C(NCC12CC3CC(CC(C3)C1)C2)c1cc(CCCNCCCO)ccc1Cl", "note": "[AZD9056]", "values": [
      {"measurement": "remaining activity at 10 µM", "setting": "human P2X4 (1321N1)", "value": 27, "unit": "%"},
      {"measurement": "IC50", "setting": "[2]", "value": "1000 to 3000", "unit": "nM"},
      {"measurement": "IC50", "setting": "[3]", "value": 11.2, "unit": "nM"}
    ]},
    {"smiles": "Nc1ncnc2c1ncn2[C@@H]1O[C@H](COP(=O)(O)OP(=O)(O)OP(=O)(O)O)[C@@H](O)[C@H]1O", "note": "[ATP]", "values": [
      {"measurement": "YoPro1 dye uptake, fluorescence plate reader", "setting": "[4]", "value": "confirmed using the YoPro1 uptake assay upon stimulation of the target cells with ATP"}
    ]}
  ]
}
